This is an account of results in patent publication US12440496B2, “Natriuretic peptide receptor a agonists useful for the treatment of cardiometabolic diseases, kidney disease and diabetes” (Merck Sharp & Dohme LLC, priority 2019, dated 2025).

The experiment concerns the target T1, hNPRA (Homo sapiens, UniProt P16066).
T1 construct: expressed in transfected cells
T1 sequence (P16066 33-1061): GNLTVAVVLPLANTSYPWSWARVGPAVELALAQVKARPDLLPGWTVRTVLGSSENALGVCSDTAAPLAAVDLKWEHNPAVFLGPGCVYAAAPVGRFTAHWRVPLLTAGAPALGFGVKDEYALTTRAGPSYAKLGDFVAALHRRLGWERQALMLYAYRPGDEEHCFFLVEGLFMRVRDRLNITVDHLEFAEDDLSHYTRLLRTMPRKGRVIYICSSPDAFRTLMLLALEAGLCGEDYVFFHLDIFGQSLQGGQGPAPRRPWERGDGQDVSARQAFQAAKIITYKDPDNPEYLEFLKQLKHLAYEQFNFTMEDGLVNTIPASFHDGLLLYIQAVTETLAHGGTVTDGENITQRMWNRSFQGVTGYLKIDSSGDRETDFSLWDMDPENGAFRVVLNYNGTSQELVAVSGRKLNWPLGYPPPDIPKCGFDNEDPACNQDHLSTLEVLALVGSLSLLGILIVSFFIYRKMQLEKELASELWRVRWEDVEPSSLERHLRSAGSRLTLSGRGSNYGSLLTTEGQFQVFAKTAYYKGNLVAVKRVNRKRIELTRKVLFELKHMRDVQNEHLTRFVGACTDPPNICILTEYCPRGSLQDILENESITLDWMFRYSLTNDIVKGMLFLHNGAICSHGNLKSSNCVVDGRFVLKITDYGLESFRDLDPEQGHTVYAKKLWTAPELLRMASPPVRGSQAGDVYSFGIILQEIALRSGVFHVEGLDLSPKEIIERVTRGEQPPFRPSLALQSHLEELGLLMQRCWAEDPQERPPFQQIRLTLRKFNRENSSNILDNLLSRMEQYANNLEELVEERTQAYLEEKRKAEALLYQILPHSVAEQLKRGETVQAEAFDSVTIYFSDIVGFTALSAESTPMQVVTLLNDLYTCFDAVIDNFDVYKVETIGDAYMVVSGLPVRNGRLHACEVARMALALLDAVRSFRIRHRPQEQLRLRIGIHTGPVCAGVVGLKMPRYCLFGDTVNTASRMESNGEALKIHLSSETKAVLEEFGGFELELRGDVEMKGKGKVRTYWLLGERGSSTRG
The experiment in a line: NPRA Functional Cell Assay (cGMP HTRF, NPRA HEK JumpIn stable cells). Type of experiment: cell-based. As to conditions: cGMP production, 1 hour at 37° C., 10-point dose response. Summed up:
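cGMP HTRF read-out after 1 hour compound treatment at 37° C. of human NPRA-expressing HEK JumpIn cells, 1500 cells/well, in buffer with phosphodiesterase inhibitors IBMX and RO20 (100 uM each). Signal converted to [cGMP] by calibration curve; EC50s fitted by 4-parameter logistic; 50 nM h-ANP as positive response.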
For the molecule `CC(C)(C)[C@H]1CCc2nc3sc(C(=O)N[C@H](CCN4CCC(O)CC4)c4ccc(-n5cncn5)cc4)nc3cc2C1` [Example 84, (7S)-7-tert-butyl-N-[(1R)-3-(4-hydroxy-piperidin-1-ium-1-yl)-1-[4-(1,2,4-triazol-1-yl)phenyl]propyl]-5,6,7,8-tetra-hydrothiazolo[5,4-b] quinoline-2-carboxamide; 2,2,2-trifluoro-acetate], a half-maximal effect (EC50) was put at 802 nM.
To `CC(C)[C@]1(F)CCc2nc3sc(C(=O)N[C@H](CCN4CCC(O)CC4)c4ccc(N5CCOCS5(=O)=O)nc4)nc3cc2C1` [Example 217, (S)-N-((R)-1-(6-(3,3-dioxido-1,3,4-oxathiazinan-4-yl)pyridin-3-yl)-3-(4-hydroxypiperidin-1-yl)propyl)-7-fluoro-7-isopropyl-5,6,7,8-tetrahydrothiazolo[5,4-b]quinoline-2-carboxamide] belongs 71 nM; to `CC1([C@H]2CCc3nc4sc(C(=O)N[C@H](CCN5CCC(O)CC5)c5ccc(N6CC(=O)NC6=O)nc5)nc4cc3C2)CC1` [Example 218, (S)-N-((R)-1-(6-(2,4-dioxoimidazolidin-1-yl)pyridin-3-yl)-3-(4-hydroxypiperidin-1-yl)propyl)-7-(1-methylcyclopropyl)-5,6,7,8-tetrahydrothiazolo[5,4-b]quinoline-2-carboxamide], 242 nM.
`CC(C)[C@]1(F)CCc2nc3sc(C(=O)N[C@H](CCN4CCC(O)CC4)c4ccc(N5CC(=O)NC5=O)nc4)nc3cc2C1` [Example 219, (S)-N-((R)-1-(6-(2,4-dioxoimidazolidin-1-yl)pyridin-3-yl)-3-(4-hydroxypiperidin-1-yl)propyl)-7-fluoro-7-isopropyl-5,6,7,8-tetrahydrothiazolo[5,4-b]quinoline-2-carboxamide]: the EC50 was determined as 384 nM.
As for `CC(C)(C)[C@H]1CCc2nc3sc(C(=O)N[C@H](CCN4CCC(O)CC4)c4ccc(N5CC(=O)NC5=O)nc4)nc3cc2C1` [Example 220, (S)-7-(tert-butyl)-N-((R)-1-(6-(2,4-dioxoimidazolidin-1-yl)pyridin-3-yl)-3-(4-hydroxypiperidin-1-yl)propyl)-5,6,7,8-tetrahydrothiazolo[5,4-b]quinoline-2-carboxamide], the EC50 was found to be 277 nM.
The result for `O=C1CN(c2ccc([C@@H](CCN3CCC(O)CC3)NC(=O)c3nc4cc5c(nc4s3)CC[C@H](C3(C(F)(F)F)CC3)C5)cn2)C(=O)N1` [Example 221, (S)-N-((R)-1-(6-(2,4-dioxoimidazolidin-1-yl)pyridin-3-yl)-3-(4-hydroxypiperidin-1-yl)propyl)-7-(1-(trifluoromethyl)cyclopropyl)-5,6,7,8-tetrahydrothiazolo[5,4-b]quinoline-2-carboxamide] reads 1140 nM; that for `CC(C)(C)[C@H]1CCc2nc3sc(C(=O)N[C@H](CCN4CCC(C(=O)O)CC4)c4ccc(N5CC(=O)NC5=O)nc4)nc3cc2C1` [Example 222, 1-((R)-3-((S)-7-(tert-butyl)-5,6,7,8-tetrahydrothiazolo[5,4-b]quinoline-2-carboxamido)-3-(6-(2,4-dioxoimidazolidin-1-yl)pyridin-3-yl)propyl)piperidine-4-carboxylic acid], 626 nM.
The result for `CC(C)(C)[C@H]1CCc2nc3sc(C(=O)N[C@H](CCN4CCC(C(=O)O)CC4)c4ccc(-c5cnc(O)c(F)c5)cc4)nc3cc2C1` [Example 223, 1-((R)-3-((S)-7-(tert-butyl)-5,6,7,8-tetrahydrothiazolo[5,4-b]quinoline-2-carboxamido)-3-(4-(5-fluoro-6-hydroxypyridin-3-yl)phenyl)propyl)piperidine-4-carboxylic acid] reads 200 nM.
On to `CC(C)(C)[C@H]1CCc2nc3sc(C(=O)N[C@H](CCN4CCC(C(=O)O)CC4)c4ccc(-c5cnc(O)c(F)c5)cc4)nc3cc2C1` [Example 224, sodium 1-((R)-3-((S)-7-(tert-butyl)-5,6,7,8-tetrahydrothiazolo[5,4-b]quinoline-2-carboxamido)-3-(4-(5-fluoro-6-hydroxypyridin-3-yl)phenyl)propyl)piperidine-4-carboxylate], for which the EC50 is 198 nM.
To `CC(C)(C)[C@H]1CCc2nc3sc(C(=O)N[C@H](CCN)c4cccc(C(=O)N[C@H]5CCNC5)c4)cc3cc2C1` [Example 225] belongs 292 nM; to `CN(C)S(=O)(=O)Nc1ccc([C@@H](CCN2CCC(O)CC2)NC(=O)c2nc3cc4c(nc3s2)CC[C@H](C(C)(C)C)C4)cc1F` [Example 226, (S)-7-(tert-butyl)-N-((R)-1-(4-((N,N-dimethylsulfamoyl)amino)-3-fluorophenyl)-3-(4-hydroxypiperidin-1-yl)propyl)-5,6,7,8-tetrahydrothiazolo[5,4-b]quinoline-2-carboxamide], 677 nM.
In turn, `CCS(=O)(=O)c1ccc([C@@H](CCN2CCC(O)CC2)NC(=O)c2nc3cc4c(nc3s2)CC[C@H](C(C)(C)C)C4)cn1` [Example 227, (S)-7-(tert-butyl)-N-((R)-1-(6-(ethylsulfonyl)pyridin-3-yl)-3-(4-hydroxypiperidin-1-yl)propyl)-5,6,7,8-tetrahydrothiazolo[5,4-b]quinoline-2-carboxamide] had a half-maximal effective concentration (EC50) of 696 nM.
To `CC(C)(C)[C@H]1CCc2nc3sc(C(=O)N[C@H](CCN4CCC(O)CC4)c4ccc(-c5cc(F)c(O)cn5)cc4)nc3cc2C1` [Example 228, (S)-7-(tert-butyl)-N-((R)-1-(4-(4-fluoro-5-hydroxypyridin-2-yl)phenyl)-3-(4-hydroxypiperidin-1-yl)propyl)-5,6,7,8-tetrahydrothiazolo[5,4-b]quinoline-2-carboxamide] belongs 305 nM; to `CC(C)(C)[C@H]1CCc2nc3sc(C(=O)N[C@H](CCN)c4ccccc4)cc3cc2C1` [Example 229, (S)-N-((R)-3-amino-1-phenylpropyl)-6-(tert-butyl)-5,6,7,8-tetrahydrothieno[2,3-b]quinoline-2-carboxamide], > 2000 nM.
Molecule `CC(C)(C)[C@H]1CCc2nc3sc(C(=O)N[C@H](CCN4CCC(O)CC4)c4ccc(N5CCOC5=O)cc4)nc3cc2C1` [Example 230, (S)-7-(tert-butyl)-N-((R)-3-(4-hydroxypiperidin-1-yl)-1-(4-(2-oxooxazolidin-3-yl)phenyl)propyl)-5,6,7,8-tetrahydrothiazolo[5,4-b]quinoline-2-carboxamide] yielded an EC50 of 1020 nM.
With `CC1([C@H]2CCc3nc4sc(C(=O)N[C@H](CCN5CCC(O)CC5)c5ccc(N6CCOC6=O)cc5)nc4cc3C2)CC1` [Example 231, (S)-N-((R)-3-(4-hydroxypiperidin-1-yl)-1-(4-(2-oxooxazolidin-3-yl)phenyl)propyl)-7-(1-methylcyclopropyl)-5,6,7,8-tetrahydrothiazolo[5,4-b]quinoline-2-carboxamide], a half-maximal response (EC50) required 725 nM.
In turn, `O=C(N[C@H](CCN1CCC(O)CC1)c1ccc(N2CCOC2=O)cc1)c1nc2cc3c(nc2s1)CC[C@H](C1(C(F)(F)F)CC1)C3` [Example 232, (S)-N-((R)-3-(4-hydroxypiperidin-1-yl)-1-(4-(2-oxooxazolidin-3-yl)phenyl)propyl)-7-(1-(trifluoromethyl)cyclopropyl)-5,6,7,8-tetrahydrothiazolo[5,4-b]quinoline-2-carboxamide] showed a 50% effective concentration (EC50) of 2200 nM.
The result for `CC(C)C1(F)CCc2nc3sc(C(=O)N[C@H](CCN4CCC(O)CC4)c4ccc(N5CCOC5=O)cc4)nc3cc2C1` (stereo partly drawn) [Example 233, 7-fluoro-N-((R)-3-(4-hydroxypiperidin-1-yl)-1-(4-(2-oxooxazolidin-3-yl)phenyl)propyl)-7-isopropyl-5,6,7,8-tetrahydrothiazolo[5,4-b]quinoline-2-carboxamide] reads 2040 nM; that for `CC1([C@H]2CCc3nc4sc(C(=O)N[C@H](CCN5CCC(O)CC5)c5ccc(-c6c[nH]c(=O)c(F)c6)cc5)nc4cc3C2)CC1` [Example 234, (S)-N-((R)-1-(4-(5-fluoro-6-oxo-1,6-dihydropyridin-3-yl)phenyl)-3-(4-hydroxypiperidin-1-yl)propyl)-7-(1-methylcyclopropyl)-5,6,7,8-tetrahydrothiazolo[5,4-b]quinoline-2-carboxamide], 120 nM.
The result for `O=C(N[C@H](CCN1CCC(O)CC1)c1ccc(-c2cnc(O)c(F)c2)cc1)c1nc2cc3c(nc2s1)CC[C@H](C1(C(F)(F)F)CC1)C3` [Example 235, (S)-N-((R)-1-(4-(5-fluoro-6-oxo-1,6-dihydropyridin-3-yl)phenyl)-3-(4-hydroxypiperidin-1-yl)propyl)-7-(1-(trifluoromethyl)cyclopropyl)-5,6,7,8-tetrahydrothiazolo[5,4-b]quinoline-2-carboxamide] reads 560 nM.
